Data from the supplement of paper PMC12463676, “Small-molecule dissolution of stress granules by redox modulation benefits ALS models” (Nature Chemical Biology, 2025).

Tests used:
[1] = compound: NC(=O)CCCCC1CCSS1 [lipoamide]; assay: thermal stability z-score vs DMSO; higher = more thermally stabilized by treatment; settings: HeLa, lipoamide concentration 100 µM
Description: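 Cellular thermal proteome profiling in HeLa cells. Cells were treated with 100 µM lipoamide for 1 h, with or without 1 mM arsenate for a further 1 h, then heated to ten temperatures (37-66.3 °C), and soluble protein was quantified by TMT mass spectrometry relative to 0.1% DMSO controls. The thermal stability score (sum of log2 fold changes minus the abundance score) was transformed to a z-score; mean of n = 3 experiments.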

[2] = compound: O=[As]([O-])(O)O.[K+] [potassium arsenate]; assay: as above; settings: HeLa; arsenate concentration 1 mM
Description: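 Cellular thermal proteome profiling in HeLa cells treated with 1 mM arsenate for 1 h (DMSO pretreatment), heated to ten temperatures (37-66.3 °C). Soluble protein was quantified by TMT mass spectrometry relative to DMSO controls; the thermal stability score was transformed to a z-score; mean of n = 3 experiments.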

[3] = arsenate co-treatment: 1 mM arsenate 1 h
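Further: each temperature applied for 3 min, abundance score taken as mean log2 fold change at the two lowest temperatures, z-score obtained by mean subtraction and division by SD.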

Chain of UniProt Q9UIJ7 (Q9UIJ7 whole entry): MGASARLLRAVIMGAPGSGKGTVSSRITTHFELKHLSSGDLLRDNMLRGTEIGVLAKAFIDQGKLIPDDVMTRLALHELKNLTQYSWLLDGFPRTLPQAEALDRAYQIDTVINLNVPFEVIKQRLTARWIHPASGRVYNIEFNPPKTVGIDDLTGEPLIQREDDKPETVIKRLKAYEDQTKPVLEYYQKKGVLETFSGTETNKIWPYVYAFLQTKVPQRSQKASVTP
Chain of UniProt Q9BRQ6 (Q9BRQ6 whole entry): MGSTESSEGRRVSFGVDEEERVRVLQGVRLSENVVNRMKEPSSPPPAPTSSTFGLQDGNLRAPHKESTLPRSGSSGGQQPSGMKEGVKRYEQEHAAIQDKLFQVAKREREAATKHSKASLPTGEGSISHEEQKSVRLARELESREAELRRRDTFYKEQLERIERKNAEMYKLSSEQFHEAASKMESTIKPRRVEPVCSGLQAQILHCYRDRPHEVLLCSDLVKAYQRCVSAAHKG
Chain of UniProt Q13177 (Q13177 whole entry): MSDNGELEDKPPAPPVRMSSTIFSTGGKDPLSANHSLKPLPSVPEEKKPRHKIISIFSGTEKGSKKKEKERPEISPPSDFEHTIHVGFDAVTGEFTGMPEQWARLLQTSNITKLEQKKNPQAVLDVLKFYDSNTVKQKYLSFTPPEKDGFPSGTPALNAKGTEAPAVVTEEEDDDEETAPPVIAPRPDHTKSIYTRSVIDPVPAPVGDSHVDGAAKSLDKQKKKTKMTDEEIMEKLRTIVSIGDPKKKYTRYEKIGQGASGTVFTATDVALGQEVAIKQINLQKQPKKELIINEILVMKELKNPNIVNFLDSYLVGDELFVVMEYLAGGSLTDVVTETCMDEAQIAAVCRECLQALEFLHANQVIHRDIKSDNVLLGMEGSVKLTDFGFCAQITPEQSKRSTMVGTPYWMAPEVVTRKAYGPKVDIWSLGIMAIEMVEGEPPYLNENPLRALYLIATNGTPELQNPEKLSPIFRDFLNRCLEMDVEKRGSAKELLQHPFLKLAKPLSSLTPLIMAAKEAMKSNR
Chain of UniProt P31947 (P31947 whole entry): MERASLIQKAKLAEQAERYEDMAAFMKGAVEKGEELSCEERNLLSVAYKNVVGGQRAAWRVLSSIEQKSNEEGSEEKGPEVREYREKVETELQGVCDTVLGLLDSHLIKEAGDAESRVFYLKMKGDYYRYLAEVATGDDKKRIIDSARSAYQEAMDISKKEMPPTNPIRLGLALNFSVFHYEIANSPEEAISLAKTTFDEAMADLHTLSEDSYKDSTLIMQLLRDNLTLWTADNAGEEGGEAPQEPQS
Chain of UniProt Q16850 (Q16850 whole entry): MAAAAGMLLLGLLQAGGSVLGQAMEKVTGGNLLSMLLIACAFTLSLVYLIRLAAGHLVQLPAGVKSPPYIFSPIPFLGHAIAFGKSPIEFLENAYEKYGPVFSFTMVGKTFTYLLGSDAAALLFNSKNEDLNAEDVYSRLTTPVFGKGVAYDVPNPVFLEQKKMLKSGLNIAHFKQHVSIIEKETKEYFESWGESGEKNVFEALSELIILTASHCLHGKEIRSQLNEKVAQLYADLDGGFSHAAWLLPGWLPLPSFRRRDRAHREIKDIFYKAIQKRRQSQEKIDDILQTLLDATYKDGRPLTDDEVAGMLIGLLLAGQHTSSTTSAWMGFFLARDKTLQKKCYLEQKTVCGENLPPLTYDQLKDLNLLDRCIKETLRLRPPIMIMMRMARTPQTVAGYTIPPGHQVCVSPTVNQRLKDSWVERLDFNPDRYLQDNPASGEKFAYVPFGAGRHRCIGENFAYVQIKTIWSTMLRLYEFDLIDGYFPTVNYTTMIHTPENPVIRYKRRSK
Chain of UniProt Q13564 (Q13564 whole entry): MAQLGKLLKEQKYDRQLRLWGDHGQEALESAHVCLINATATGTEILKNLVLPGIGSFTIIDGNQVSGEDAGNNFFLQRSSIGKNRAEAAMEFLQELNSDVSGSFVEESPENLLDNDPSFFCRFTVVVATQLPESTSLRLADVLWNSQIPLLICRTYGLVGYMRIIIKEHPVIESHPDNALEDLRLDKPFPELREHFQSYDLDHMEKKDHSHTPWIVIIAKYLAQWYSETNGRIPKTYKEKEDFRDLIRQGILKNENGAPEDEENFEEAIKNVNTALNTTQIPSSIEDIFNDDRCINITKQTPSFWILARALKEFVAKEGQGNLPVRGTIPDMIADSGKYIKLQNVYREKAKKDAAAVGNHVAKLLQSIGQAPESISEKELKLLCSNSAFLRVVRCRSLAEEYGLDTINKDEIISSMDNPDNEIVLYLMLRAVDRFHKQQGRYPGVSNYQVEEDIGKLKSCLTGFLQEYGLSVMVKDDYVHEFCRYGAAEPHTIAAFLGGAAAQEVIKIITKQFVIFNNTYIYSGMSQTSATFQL
Chain of UniProt O15164 (O15164 whole entry): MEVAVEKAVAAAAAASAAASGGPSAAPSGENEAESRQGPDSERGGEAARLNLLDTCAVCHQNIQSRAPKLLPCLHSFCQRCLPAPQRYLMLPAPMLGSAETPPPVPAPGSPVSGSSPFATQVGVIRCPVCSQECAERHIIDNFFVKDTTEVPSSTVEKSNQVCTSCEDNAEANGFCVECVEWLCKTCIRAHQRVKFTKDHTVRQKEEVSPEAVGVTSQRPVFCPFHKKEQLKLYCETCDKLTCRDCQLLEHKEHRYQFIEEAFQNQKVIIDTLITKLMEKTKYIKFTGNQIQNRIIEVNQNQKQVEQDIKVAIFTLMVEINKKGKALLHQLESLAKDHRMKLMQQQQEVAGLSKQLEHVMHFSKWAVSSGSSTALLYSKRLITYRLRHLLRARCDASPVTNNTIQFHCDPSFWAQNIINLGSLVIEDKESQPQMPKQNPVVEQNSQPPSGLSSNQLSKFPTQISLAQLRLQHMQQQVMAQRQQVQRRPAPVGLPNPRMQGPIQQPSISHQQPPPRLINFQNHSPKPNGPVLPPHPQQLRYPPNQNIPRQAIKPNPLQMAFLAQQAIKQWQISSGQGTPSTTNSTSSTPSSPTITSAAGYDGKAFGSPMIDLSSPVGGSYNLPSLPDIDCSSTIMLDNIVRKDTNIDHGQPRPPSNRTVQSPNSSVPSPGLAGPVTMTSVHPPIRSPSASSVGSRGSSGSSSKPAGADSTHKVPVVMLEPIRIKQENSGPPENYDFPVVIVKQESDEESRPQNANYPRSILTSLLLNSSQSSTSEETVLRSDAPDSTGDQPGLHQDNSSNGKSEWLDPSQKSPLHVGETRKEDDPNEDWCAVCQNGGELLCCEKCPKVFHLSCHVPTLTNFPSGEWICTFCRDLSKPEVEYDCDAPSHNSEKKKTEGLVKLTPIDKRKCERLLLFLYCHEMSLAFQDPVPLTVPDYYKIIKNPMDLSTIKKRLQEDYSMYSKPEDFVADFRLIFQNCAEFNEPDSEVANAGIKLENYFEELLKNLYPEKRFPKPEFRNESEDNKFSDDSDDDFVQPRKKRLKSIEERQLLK
Chain of UniProt Q6ZW49 (Q6ZW49 whole entry): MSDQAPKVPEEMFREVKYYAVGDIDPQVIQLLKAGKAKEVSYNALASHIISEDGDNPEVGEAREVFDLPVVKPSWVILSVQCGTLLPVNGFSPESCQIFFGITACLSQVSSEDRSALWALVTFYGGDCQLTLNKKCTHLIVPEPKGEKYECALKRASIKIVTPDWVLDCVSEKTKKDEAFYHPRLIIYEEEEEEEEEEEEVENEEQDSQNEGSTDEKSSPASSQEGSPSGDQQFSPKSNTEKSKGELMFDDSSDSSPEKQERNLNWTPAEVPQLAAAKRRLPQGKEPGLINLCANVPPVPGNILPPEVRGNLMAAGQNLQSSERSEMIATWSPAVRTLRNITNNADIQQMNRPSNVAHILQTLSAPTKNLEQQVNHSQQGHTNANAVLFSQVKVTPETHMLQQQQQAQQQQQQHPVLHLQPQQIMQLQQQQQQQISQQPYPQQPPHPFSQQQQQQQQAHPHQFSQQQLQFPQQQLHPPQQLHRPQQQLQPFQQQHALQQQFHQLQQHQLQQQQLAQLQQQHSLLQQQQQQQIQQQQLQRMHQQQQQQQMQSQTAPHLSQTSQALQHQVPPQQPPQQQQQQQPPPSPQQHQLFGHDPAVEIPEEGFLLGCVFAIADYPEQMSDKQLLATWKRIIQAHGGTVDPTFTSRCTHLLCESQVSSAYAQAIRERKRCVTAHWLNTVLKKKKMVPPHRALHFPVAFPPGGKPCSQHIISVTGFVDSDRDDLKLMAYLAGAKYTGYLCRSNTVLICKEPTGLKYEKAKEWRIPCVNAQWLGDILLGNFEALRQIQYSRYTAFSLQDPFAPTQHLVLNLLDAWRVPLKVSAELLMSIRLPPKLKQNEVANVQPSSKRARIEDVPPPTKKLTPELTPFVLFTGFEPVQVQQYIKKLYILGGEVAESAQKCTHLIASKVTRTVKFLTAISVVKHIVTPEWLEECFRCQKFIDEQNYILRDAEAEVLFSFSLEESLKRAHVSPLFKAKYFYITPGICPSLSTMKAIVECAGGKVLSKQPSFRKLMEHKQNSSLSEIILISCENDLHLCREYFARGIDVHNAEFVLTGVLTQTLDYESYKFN
Chain of UniProt P17980 (P17980 whole entry): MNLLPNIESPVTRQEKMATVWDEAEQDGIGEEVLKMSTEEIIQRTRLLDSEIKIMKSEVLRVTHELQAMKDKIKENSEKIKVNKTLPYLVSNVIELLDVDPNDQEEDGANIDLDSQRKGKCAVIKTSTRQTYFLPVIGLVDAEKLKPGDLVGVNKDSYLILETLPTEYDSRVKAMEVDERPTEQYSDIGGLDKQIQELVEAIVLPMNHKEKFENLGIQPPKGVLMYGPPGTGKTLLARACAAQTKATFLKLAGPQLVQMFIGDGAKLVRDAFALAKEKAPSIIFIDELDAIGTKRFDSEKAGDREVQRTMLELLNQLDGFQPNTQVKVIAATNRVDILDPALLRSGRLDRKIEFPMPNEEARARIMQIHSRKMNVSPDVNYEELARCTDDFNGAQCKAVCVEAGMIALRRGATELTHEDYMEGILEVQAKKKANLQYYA
Chain of UniProt P20962 (P20962 whole entry): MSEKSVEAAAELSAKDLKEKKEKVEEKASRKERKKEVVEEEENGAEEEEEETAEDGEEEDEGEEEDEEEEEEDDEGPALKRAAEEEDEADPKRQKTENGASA

| Target | thermal stability z-score [1, 3] | thermal stability z-score ([1]; arsenate co-treatment: none) | thermal stability z-score [2] |
| --- | --- | --- | --- |
| AK3 (UniProt Q9UIJ7) | -0.869 | -1 | -1.11 |
| PNKD (UniProt Q8N490) | 0.175 | 0.758 | 0.929 |
| PITPNA (UniProt Q00169) | 0.386 | 0.434 | -0.787 |
| PSMB6 (UniProt P28072) | 0.174 | 0.262 | -0.414 |
| TXN2 (UniProt Q99757) | -0.504 | 0.00983 | 2.39 |
| LYRM4 (UniProt Q9HD34) | -0.401 | 0.0692 | -0.348 |
| NSMCE3 (UniProt Q96MG7) | -0.0975 | -0.0424 | 0.119 |
| UBE2I (UniProt P63279) | -0.334 | 0.315 | 0.137 |
| SFN (UniProt P31947) | 0.524 | 0.0759 | -0.012 |
| CHSY1 (UniProt Q86X52) | -0.212 | -0.333 | -0.171 |
| CEP170B (UniProt Q9Y4F5) | -0.0863 | -0.0862 | -0.201 |
| TENM3 (UniProt Q9P273) | 0.179 | -0.452 | -0.147 |
| ITSN1 (UniProt Q15811) | -0.734 | -0.15 | 0.365 |
| MTSS1L (UniProt Q765P7) | 0.179 | 0.0525 | -0.228 |
| NAE1 (UniProt Q13564) | -0.406 | -0.333 | -0.18 |
| PDCD2 (UniProt Q16342) | -0.0711 | -0.181 | -0.371 |
| HPS5 (UniProt Q9UPZ3) | -0.0872 | 0.00734 | -0.219 |
| MRE11A (UniProt P49959) | 0.729 | 0.164 | -0.619 |

| Target | thermal stability z-score [1, 3] | thermal stability z-score ([1]; arsenate co-treatment: none) | thermal stability z-score [2] |
| --- | --- | --- | --- |
| CHCHD6 (UniProt Q9BRQ6) | 0.209 | 0.536 | -0.66 |
| SLC25A12 (UniProt O75746) | -0.149 | -0.154 | -0.0761 |
| EBAG9 (UniProt O00559) | 1.73 | 1.25 | 0.749 |
| SPTLC1 (UniProt O15269) | -0.481 | -0.72 | 0.833 |
| PSMC3 (UniProt P17980) | -0.262 | -0.0444 | -0.44 |
| AP1B1 (UniProt Q10567) | 0.216 | 0.0123 | 0.425 |
| C15ORF40 (UniProt Q8WUR7) | 0.334 | -0.344 | -1.19 |
| TBCB (UniProt Q99426) | 0.475 | -0.253 | -1.55 |
| RAI14 (UniProt Q9P0K7) | -0.47 | -0.419 | -0.554 |
| PAXIP1 (UniProt Q6ZW49) | -0.0199 | 0.255 | 0.00378 |
| ARFIP2 (UniProt P53365) | -0.0772 | -0.0355 | 0.108 |
| CYP51A1 (UniProt Q16850) | -0.665 | -0.0953 | 0.803 |
| WDFY2 (UniProt Q96P53) | -0.402 | -0.11 | -0.0121 |
| CCT8 (UniProt P50990) | -0.0223 | -0.0937 | -0.245 |
| PTMS (UniProt P20962) | 0.606 | 0.808 | -0.629 |
| CNOT11 (UniProt Q9UKZ1) | -0.0705 | 0.0824 | 0.0729 |
| TRIM24 (UniProt O15164) | 0.0835 | 0.184 | -0.334 |
| PAK2 (UniProt Q13177) | -0.044 | 0.283 | -0.165 |
